Patent publication US11000495B2, “Topical diclofenac sodium compositions” (Novartis Consumer Health S.A., priority 2014, dated 2021)
Structures can show the parent of a compound that is named as a salt.

Key:
[1] = cited from earlier work
[2] = Solubility of diclofenac sodium 2 wt % in IPA/PG/water solvent mixtures by UV absorbance; format: physicochemical; conditions: 2% diclofenac sodium in IPA/PG/water, 25° C., systems shown as circles in FIG. 1
Experimental: FIG. 1 is a ternary diagram of the solubility of diclofenac sodium, 2 wt %, at 25° C., as determined by UV absorbance, in solvent mixtures comprising isopropyl alcohol (bottom axis), propylene glycol (left axis), and water (right axis) in varying amounts. The data points represent solvent mixtures which are found to be at or above (circles), or below (squares), the target (i.e. 2%) solubility. FIG. 1 illustrates solubility studies of such solvent systems comprising 2% diclofenac sodium in isopropyl alcohol (IPA), propylene glycol (PG) and water. […] (Incomplete solubilization is represented by squares.)

| Structure (SMILES) | water solubility ([1]; acid form, Fini et al.) | solubility of the salt in solvent systems [2] | kinetic solubility ([1]; anhydrous form, Llinas et al.) [µg/mL] |
| --- | --- | --- | --- |
| O=C(O)Cc1ccccc1Nc1c(Cl)cccc1Cl [Acidic diclofenac, diclofenac] | very low |  |  |
| O=C(O)Cc1ccccc1Nc1c(Cl)cccc1Cl [diclofenac sodium, 2-[(2,6-dichloro-phenyl)amino]benzeneacetic acid, (mono) sodium salt] |  | Complete solubility | 40 ± 5 |
